The source of these data is ChEMBL document CHEMBL1137075, “General model for estimation of the inhibition of protein kinases using Monte Carlo simulations” (J Med Chem, 2004).

A word on the IC50: it is the point on the concentration scale where inhibition reaches its midpoint. High values mean lower potency, low ones higher potency.

Structures are written as SMILES.

Sequence of Tyrosine-protein kinase Lck (P06239 whole entry): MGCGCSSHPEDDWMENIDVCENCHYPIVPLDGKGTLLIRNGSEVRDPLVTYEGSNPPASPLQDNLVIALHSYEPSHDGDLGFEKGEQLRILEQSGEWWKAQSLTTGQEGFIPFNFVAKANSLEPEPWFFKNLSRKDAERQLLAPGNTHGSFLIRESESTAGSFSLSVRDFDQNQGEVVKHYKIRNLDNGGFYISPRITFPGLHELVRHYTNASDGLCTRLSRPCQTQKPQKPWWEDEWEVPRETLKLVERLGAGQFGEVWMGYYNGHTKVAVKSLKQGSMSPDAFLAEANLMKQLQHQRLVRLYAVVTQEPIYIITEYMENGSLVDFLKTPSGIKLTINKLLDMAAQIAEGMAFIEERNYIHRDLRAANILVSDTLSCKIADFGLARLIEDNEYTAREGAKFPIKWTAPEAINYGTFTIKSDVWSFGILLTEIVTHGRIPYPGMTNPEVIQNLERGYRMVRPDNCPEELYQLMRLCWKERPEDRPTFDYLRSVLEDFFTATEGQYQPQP

The first assay concerns the target Tyrosine-protein kinase Lck (Homo sapiens, UniProt P06239).
Description: Evaluated for inhibition of human p56 Lck tyrosine kinase
Compound `c1cncc(-c2nc3ccccc3n3cncc23)c1` returned an IC50 of 820 nM.
Still for that read-out and setting: the figure for `CCCc1nc2ccccc2n2cncc12` is 2680 nM; for `c1ccc2c(c1)nc(C1CCCCC1)c1cncn12` it is 3170 nM.
For the compound `c1ccc2c(c1)nc(C1CC1)c1cncn12`, the IC50 was found to be 3170 nM.
As for `COc1cc2nc(Nc3c(C)cccc3Cl)c3cnc(C=O)n3c2cc1OC`, the IC50 came out at 10 nM.
As to `COc1cc2nc(Nc3c(C)cccc3Cl)c3cnc(CO)n3c2cc1OC`, the 50% inhibitory concentration (IC50) worked out at 6.2 nM.

Another assay has as its target Cyclin-dependent kinase 2 (Homo sapiens, UniProt P24941). Briefly: Evaluated for inhibition of human cyclin dependent kinase 2 (CDK2).
Compound `COc1ccc2[nH]c(O)c(/N=N/c3ccccc3)c2c1` had an IC50 of 60 nM.
With `Oc1[nH]c2ccccc2c1/N=N/c1ccccc1`, it took 46 nM to reach half-maximal inhibition (IC50).
`Oc1[nH]c2ccc(Br)cc2c1/N=N/c1ccccc1` showed an IC50 of 43 nM.
